As usually defined, the IC50 is the concentration at which inhibition is half-maximal. High values mean weaker potency, low ones greater potency.

The record followed here is ChEMBL document CHEMBL1158384, “Design, synthesis, and biological evaluation of 1,5-benzothiazepine-4-one derivatives targeting factor VIIa/tissue factor” (Bioorg Med Chem Lett, 2009).

Test [1] deals with Prothrombin (Homo sapiens, UniProt P00734). Description: Inhibition of human factor 2a by spectrophotometry.
The target in test [2] is Coagulation factor VII/tissue factor (Homo sapiens, UniProt P08709). The experiment in a line: Inhibition of human tissue factor/factor 7a. Format: protein-complex assay.
Chain of Coagulation factor VII/tissue factor (P08709 61-212 limits assumed): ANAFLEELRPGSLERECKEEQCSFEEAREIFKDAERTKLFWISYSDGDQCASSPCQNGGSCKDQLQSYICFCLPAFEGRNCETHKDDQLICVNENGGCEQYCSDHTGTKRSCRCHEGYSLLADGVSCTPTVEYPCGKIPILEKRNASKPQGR
Chain of Coagulation factor VII/tissue factor (P08709 213-466 limits assumed): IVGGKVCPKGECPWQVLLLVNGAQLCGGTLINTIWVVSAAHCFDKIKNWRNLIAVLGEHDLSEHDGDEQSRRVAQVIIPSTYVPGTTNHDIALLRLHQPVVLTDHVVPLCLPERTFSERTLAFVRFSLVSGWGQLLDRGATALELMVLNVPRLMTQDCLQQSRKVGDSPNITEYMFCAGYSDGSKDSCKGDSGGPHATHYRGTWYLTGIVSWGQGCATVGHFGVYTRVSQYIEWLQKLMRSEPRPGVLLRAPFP
Chain of Coagulation factor VII/tissue factor (P13726 33-295 partner limits assumed): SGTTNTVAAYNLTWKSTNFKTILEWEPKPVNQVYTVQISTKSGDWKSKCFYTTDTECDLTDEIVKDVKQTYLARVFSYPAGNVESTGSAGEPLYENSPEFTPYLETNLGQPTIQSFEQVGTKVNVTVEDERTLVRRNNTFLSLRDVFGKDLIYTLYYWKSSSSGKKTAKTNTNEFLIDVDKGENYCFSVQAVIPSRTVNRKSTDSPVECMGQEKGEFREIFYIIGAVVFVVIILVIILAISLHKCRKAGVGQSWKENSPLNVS
In test [3] the target is Coagulation factor X (Homo sapiens, UniProt P00742). Description: Inhibition of human factor 10a by spectrometry.
Chain of Coagulation factor X (P00742 41-179 limits assumed): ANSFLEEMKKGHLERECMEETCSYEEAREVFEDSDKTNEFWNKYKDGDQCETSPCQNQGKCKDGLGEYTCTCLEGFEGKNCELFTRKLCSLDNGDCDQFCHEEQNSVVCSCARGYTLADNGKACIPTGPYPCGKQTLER
Chain of Coagulation factor X (P00742 235-488 limits assumed): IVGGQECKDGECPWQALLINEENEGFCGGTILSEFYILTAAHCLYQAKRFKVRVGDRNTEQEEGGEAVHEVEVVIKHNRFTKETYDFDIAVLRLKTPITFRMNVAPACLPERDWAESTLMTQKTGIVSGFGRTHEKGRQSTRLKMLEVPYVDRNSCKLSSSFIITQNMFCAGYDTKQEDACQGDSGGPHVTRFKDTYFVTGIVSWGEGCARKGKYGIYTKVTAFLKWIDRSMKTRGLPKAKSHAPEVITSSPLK

On to `N=C(N)c1ccc(CNC(=O)CN2C(=O)[C@H](NS(=O)(=O)Cc3ccccc3)CSc3ccc(CN)cc32)cc1`, for which the IC50 in test [1] turned out to be 10 µM; in test [2], 1.86 µM; in test [3], 1.72 µM.

`N=C(N)c1ccc(CNC(=O)CCN2C(=O)[C@@H](NC(=O)CCC(=O)O)CSc3ccccc32)cc1`: the IC50 was over 33 µM in test [1] and 166 µM in test [2].

In turn, `N=C(N)c1ccc(CNC(=O)CCN2C(=O)[C@H](NCC(=O)O)CSc3ccccc32)cc1` came in with an IC50 in test [2] of 95 µM.

With `N=C(N)c1ccc(CNC(=O)CN2C(=O)C(NS(=O)(=O)Cc3ccccc3)CSc3ccccc32)cc1` (single isomer, unassigned), the IC50 amounted to 0.37 µM in test [1], 2.16 µM in test [2] and 3.28 µM in test [3]. Taken in the same sequence, the figures for `N=C(N)c1ccc(CNC(=O)CN2C(=O)[C@H](NS(=O)(=O)Cc3ccccc3)CSc3ccc(CC(N)C(=O)O)cc32)cc1` (stereo partly drawn) were 33 µM, 1.5 µM and 1.05 µM.

For `N=C(N)c1ccc(CNC(=O)CN2C(=O)C(NC(=O)CCC(=O)O)CSc3ccccc32)cc1` (single isomer, unassigned), the half-maximal inhibitory concentration (IC50) is 300 µM in test [1] and 81 µM in test [2]. As to `CC(=O)N[C@@H]1CSc2ccccc2N(CC(=O)NCc2ccc(N)nc2C)C1=O`, the half-inhibitory concentration (IC50) in test [1] is 133 µM; in test [2], over 300 µM.

Consider `N=C(N)c1ccc(CNC(=O)CN2C(=O)[C@H](NS(=O)(=O)Cc3ccccc3)CSc3ccc(-c4ccccc4)cc32)cc1`, for which half-maximal inhibition in test [2] (IC50) required 10.9 µM.

With `N=C(N)c1ccc(CNC(=O)CCN2C(=O)[C@@H](NCC(=O)O)CSc3ccccc32)cc1`, the IC50 is 33 µM in test [1] and over 330 µM in test [2]. For `CC(=O)N[C@H]1CSc2ccccc2N(CC(=O)NCc2ccc(C(=N)N)cc2)C1=O` the same measures were 100 µM and 37.3 µM. Taken in the same sequence, the figures for `N=C(N)c1ccc(CNC(=O)CN2C(=O)[C@@H](NS(=O)(=O)Cc3ccccc3)CSc3ccccc32)cc1` were 48 µM and 27.9 µM. Take `N=C(N)c1ccc(CNC(=O)CN2C(=O)[C@H](NS(=O)(=O)Cc3ccccc3)CSc3cc(CCC(=O)O)ccc32)cc1`: half-maximal inhibition in test [2] (IC50) required 13.1 µM. Compound `N=C(N)c1ccc(CNC(=O)CN2C(=O)[C@H](NS(=O)(=O)Cc3ccccc3)CSc3cc(C(=O)O)ccc32)cc1` showed an IC50 in test [2] of over 33 µM. Consider `N=C(N)c1ccc(CNC(=O)CN2C(=O)[C@@H](N)CSc3ccccc32)cc1`, for which the IC50 worked out at 87 µM in test [1] and 24.4 µM in test [2]. As to `N=C(N)c1ccc(CNC(=O)CN2C(=O)[C@@H](NC(=O)CCC(=O)O)CSc3ccccc32)cc1`, the half-maximal inhibitory concentration (IC50) in test [1] is over 300 µM; in test [2], 27.7 µM. In test [2], `CC(=O)N[C@@H]1CSc2ccccc2N(CCC(=O)NCc2ccc(C(=N)N)cc2)C1=O` showed a concentration for half-maximal inhibition (IC50) of 233 µM. In the case of `Cc1nc(N)ccc1CNC(=O)CCN1C(=O)[C@H](NCC(=O)O)CSc2ccccc21`, the half-maximal inhibitory concentration (IC50) in test [2] was over 33 µM. As to `N=C(N)c1ccc(CNC(=O)CN2C(=O)[C@H](NS(=O)(=O)Cc3ccccc3)CSc3cc(CN)ccc32)cc1`, the IC50 in test [1] was determined as 10 µM; in test [2], 5.6 µM; in test [3], 0.8 µM. `Cc1nc(N)ccc1CNC(=O)CN1C(=O)[C@H](NS(=O)(=O)Cc2ccccc2)CSc2ccccc21`: the IC50 in test [2] was over 33 µM. In the case of `N=C(N)c1ccc(CNC(=O)CN2C(=O)[C@H](NS(=O)(=O)Cc3ccccc3)CSc3ccc(CCC(=O)O)cc32)cc1`, the IC50 amounted to 33 µM in test [1], 2.64 µM in test [2] and 2.03 µM in test [3].

For `Cc1nc(N)ccc1CNC(=O)CN1C(=O)[C@@H](N)CSc2ccccc21`, the IC50 was 88 µM in test [1] and over 300 µM in test [2]. Regarding `N=C(N)c1ccc(CNC(=O)CN2C(=O)[C@H](NS(=O)(=O)Cc3ccccc3)CSc3ccc(CC(=O)O)cc32)cc1`, the IC50 in test [1] is 33 µM; in test [2], 2.98 µM; in test [3], 0.21 µM. Taken in the same sequence, the figures for `N=C(N)c1ccc(CNC(=O)CN2C(=O)[C@H](NS(=O)(=O)Cc3ccccc3)CSc3ccc(CCN)cc32)cc1` were 6.23 µM, 1.32 µM and 2.79 µM.

As for `CC(=O)N[C@@H]1CSc2ccccc2N(CC(=O)NCc2ccc(C(=N)N)cc2)C1=O`, in test [2], the IC50 is 90 µM. Turning to `N=C(N)c1ccc(CNC(=O)CN2C(=O)[C@H](NC(=O)C(c3ccccc3)c3ccccc3)CSc3ccccc32)cc1`, the IC50 in test [2] is over 33 µM. The same measure, in the same setting: the same measure for `N=C(N)c1ccc(CNC(=O)CN2C(=O)[C@H](NS(=O)(=O)Cc3ccccc3)CSc3cc(CC(=O)O)ccc32)cc1`: 14.3 µM.

`N=C(N)c1ccc(CNC(=O)CN2C(=O)[C@H](NS(=O)(=O)Cc3ccccc3)CSc3ccc(-c4cccc([N+](=O)[O-])c4)cc32)cc1`: the IC50 in test [1] was determined as 0.79 µM; in test [2], 5.96 µM; in test [3], 2.81 µM. For `N=C(N)c1ccc(CNC(=O)CN2C(=O)[C@H](NS(=O)(=O)Cc3ccccc3)CSc3cc(N)ccc32)cc1` the same measures were 7.05 µM, 4.86 µM and 1.63 µM. Compound `Cc1nc(N)ccc1CNC(=O)CCN1C(=O)[C@H](NS(=O)(=O)Cc2ccccc2)CSc2ccccc21` had an IC50 in test [2] of over 33 µM. Same read-out and setting: for `N=C(N)c1ccc(CNC(=O)CCN2C(=O)[C@H](NC(=O)CCC(=O)O)CSc3ccccc32)cc1` the value was 61 µM. With `N=C(N)c1ccc(CNC(=O)CN2C(=O)[C@H](NS(=O)(=O)Cc3ccccc3)CSc3ccc(N)cc32)cc1`, the figures for the IC50 in test [1], in test [2] and in test [3] were 1.89 µM, 2.3 µM and 1.52 µM, respectively. As for `Cc1nc(N)ccc1CNC(=O)CN1C(=O)[C@H](N)CSc2ccccc21`, the IC50 in test [1] is 88 µM; in test [2], over 300 µM. In test [2], `Cc1nc(N)ccc1CNC(=O)CN1C(=O)[C@H](NCC(=O)O)CSc2ccccc21` gave a 50% inhibitory concentration (IC50) of over 33 µM. `N=C(N)c1ccc(CNC(=O)CN2C(=O)[C@H](NS(=O)(=O)Cc3ccccc3)CSc3ccc(C(=O)O)cc32)cc1` gave a concentration for half-maximal inhibition (IC50) in test [2] of 4.67 µM. Still for that read-out and setting: the same measure for `CC(=O)N[C@H]1CSc2ccccc2N(CCC(=O)NCc2ccc(C(=N)N)cc2)C1=O`: 168 µM. Still for that read-out and setting: the same measure for `N=C(N)c1ccc(CNC(=O)CCN2C(=O)[C@@H](NS(=O)(=O)Cc3ccccc3)CSc3ccccc32)cc1`: 19.7 µM. Take `N=C(N)c1ccc(CNC(=O)CN2C(=O)[C@H](NS(=O)(=O)Cc3ccccc3)CSc3ccc(-c4cccc(N)c4)cc32)cc1`: the IC50 in test [1] was found to be 10 µM; in test [2] it was 6.86 µM; in test [3], 3.23 µM. In test [2], `N=C(N)c1ccc(CNC(=O)CCN2C(=O)[C@H](NS(=O)(=O)Cc3ccccc3)CSc3ccccc32)cc1` came in with a 50% inhibitory concentration (IC50) of 63 µM. With `CC(=O)N[C@H]1CSc2ccccc2N(CC(=O)NCc2ccc(N)nc2C)C1=O`, the IC50 is 130 µM in test [1] and over 300 µM in test [2]. With `N=C(N)c1ccc(CNC(=O)CN2C(=O)[C@H](NCC(=O)O)CSc3ccccc32)cc1`, half-maximal inhibition in test [2] (IC50) was put at 15.9 µM. This lies in the double-digit micromolar range.
